We go through 5 compounds from PMC1079869 (BMC Neuroscience, 2005).

“Also recorded” adds a separate entry of the source.

For one experiment, the system named is pain. Further details: method as in 5 sources, ref 1 = [1]; PMID 3865193; doi:10.1073/pnas.82.22.7757; Yang H-YT Fratta W Majane EA Costa E Isolation, sequencing, synthesis, and pharmacological characterization of two brain neuropeptides that modulate the action of morphine Proc Natl Acad Sci U S A 198 ||| ref 4 = [4]; PMID 8821539; doi:10.1111/j.1476-5381.1996.tb15217.x; Gouarderes C Jhamandas K Sutak M Zajac JM Role of opioid receptors in the spinal antinociceptive effects of neuropeptide FF analogues Br J Pharmacol 1996 117 493 501 8821539 10.1111/j.1476-5381.1996.t ||| ref 44 = [44]; PMID 10499424; doi:10.1016/S0196-9781(99)00100-X; Xu M Kontinen VK Panula P Kalso E Effects of (1DMe)NPYF, a synthetic neuropeptide FF analogue, in different pain models Peptides 1999 20 1211 1217 10499424 10.1016/S0196-9781(99)00100-X ||| ref 4, 44 = [4]; PMID 8821539; doi:10.1111/j.1476-5381.1996.tb15217.x; Gouarderes C Jhamandas K Sutak M Zajac JM Role of opioid receptors in the spinal antinociceptive effects of neuropeptide FF analogues Br J Pharmacol 1996 117 493 501 8821539 10.1111/j.1476-5381.1996.t || [44]; PMID 10499424; doi:10.1016/S0196-9781(99)00100-X; Xu M Kontinen VK Panula P Kalso E Effects of (1DMe)NPYF, a synthetic neuropeptide FF analogue, in different pain models Peptides 1999 20 1211 1217 10499424 10.1016/S0196-9781(99)00100-X ||| ref 46 = [46]; PMID 12507715; doi:10.1016/S0304-3959(02)00333-0; Cahill CM Morinville A Hoffert C O'Donnell D Beaudet A Up-regulation and trafficking of delta opioid receptor in a model of chronic inflammation: implications for pain control Pain 2003 101 199 208 12. As to conditions: cited from earlier work; for effect on NPFF-induced analgesia / antinociception: opioid antagonist against intrathecal NPFF; for antagonism of analgesic effects of NPFF in vivo: opioid antagonists.

Experiment [1] deals with T1, c-MYC-tagged human delta opioid receptor (Homo sapiens, UniProt P41143). The experiment in a line: FACS analysis of agonist-induced DOR internalization (cell surface fluorescence). (In general: Flow cytometry measures light scatter and fluorescence of single cells or particles in a stream.)
T1 sequence (P41143 whole entry): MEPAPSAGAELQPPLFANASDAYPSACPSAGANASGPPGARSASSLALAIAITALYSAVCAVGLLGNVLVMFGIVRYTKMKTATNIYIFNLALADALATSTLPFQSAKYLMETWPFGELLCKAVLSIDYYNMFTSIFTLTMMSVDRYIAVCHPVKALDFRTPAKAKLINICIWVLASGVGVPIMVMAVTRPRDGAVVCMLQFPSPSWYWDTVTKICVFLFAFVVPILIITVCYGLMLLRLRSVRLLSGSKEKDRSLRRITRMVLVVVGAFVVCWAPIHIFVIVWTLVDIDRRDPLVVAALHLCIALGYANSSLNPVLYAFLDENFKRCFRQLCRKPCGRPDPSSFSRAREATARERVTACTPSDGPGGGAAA
Description: The CHO/MYChDOR cells were collected and suspended into the culture medium. The cells were treated with drugs in suspension as for the immunocytochemistry for the indicated times. After the incubation, the membrane trafficking was stopped by rapidly chilling the cells on ice and removing the medium. After this the cells were kept on ice. The cells were washed with PBS and stained in PBS-suspension with rabbit anti-MYC antibody (1 % normal goat serum (v/v) used to block unspecific binding), followed by the detection with a fluorescent secondary antibody. Dead cells were detected with isopropidium iodide. Cells were analyzed with FACScan flow cytometer (Becton Dickinson and Co., Mountain View, CA, USA). Data from 10000 cells were collected for each run and each sample was run in replicate or triplicate.
The internalization percent was calculated as: [drawing 1] where F(ctrl) in the fluorescence of the time-matched control cells and the F(sample) is the fluorescence measured from the drug-treated cells.
10000 cells/sample were analyzed with FACS.
Experiment [2] deals with T1, c-MYC-tagged human delta opioid receptor. The experiment in a line: Tb-DeltI binding on CHO/MYChDOR whole cells, effect of (1DMe)NPYF (time-resolved fluorometry). The procedure: 6 μg of crude membrane preparations or whole cells (25 000 cell/well) that were plated one day before experiment and fixed with 4 % PFA for 10 min at room temperature, were used in the saturation binding experiments. The whole cell assays were carried out on normal cell culture plates and the assays with membrane preparations on special filter plates (Pall Life Sciences). The cells or membranes were incubated in 50 mM Tris/HCl pH 7.5; 2.5 mM MgCl2; 60 mM NaCl; 25 μM EDTA, 0.2 % BSA (w/v) for 90 min at room temperature with 0.01 – 781.25 nM Tb-DeltI in the presence or absence of 1 or 5 μM unlabeled DeltI. To study the effect of (1DMe)NPYF on the Tb-DeltI binding, 1–1000 nM (1DMe)NPYF was added together with unlabeled DeltI. After the incubation the unbound Tb-DeltI was removed by washing the plates four times with 50 mM Tris/HCl pH 7.5; 2.5 mM MgCl2. Vacuum pump system was used to wash the filter plates. Since the chelate-bound Tb-ion is nonfluorescent, it needed to be released from the complex. In order to release Tb-ion from the chelate 150 μl Delfia enhancement solution was added to the wells and the plates were incubated on a shaker for 15 min. Thereafter, 40 μl Delfia enhancer that changes the pH of the assay solution appropriate for Tb-fluorescence was added, and the plates were further incubated for 5 min on a shaker. The time-resolved fluorescence of the released Tb-ion was measured with Victor^2 Multilabel counter (Perkin Elemer Wallac, Turku, Finland).

The target is the same in experiment [3]. It is filed as cell-based.
Experiment [4] has as its system MAP-kinase p42MAPK (ERK2). In words: Phosphorylation of MAPK (ERK2) in CHO/MYChDOR cells, immunoblot. Type of experiment: cell-based, Chinese hamster. On the procedure: 25000 cells/well were seeded onto 24-well plates and incubated o/n. The medium was replaced with serum-free medium and the cells were incubated for one hour at 37°C. […] The reaction was stopped by removing the medium and adding modified RIPA-lysis buffer (PBS, pH 7.6; 1 % Nonidet P-40 (v/v); 0.5 % sodium deoxycholate (w/v); 0.1 % SDS (w/v), 10 mM NaF; 0.4 mM PMSF, 10 μg/ml aprotinin, 10 μg/ml leupeptin, 2 mM […]; 0.2 mM bestatin). Cells were lysed on ice for 15 min and the lysates were collected. The protein content was determined with the Bradford method.
10 μg of protein was analyzed on 10 % SDS-PAGE gel and the gel was blotted onto nitrocellulose membrane. […] After washes, the membrane was detected with the ECL-protocol. The band intensities were measured with AlphaDigiDoc1000 documentation system (Alpha Innotech, San Leandro, CA, USA). […]
Figure 6 DOR agonist induced phosphorylation of the MAP-kinase, ERK2, is increased by (1DMe)NPYF. A. Total cell lysates (10 μg protein per lane) were detected with phosphoERK2 and total ERK2 specific antibodies. […] B. The band intensities of phosphoERK2 were quantified and they are presented as relative band intensities with respect to the total ERK2. […] The statistical significance between time-points and treatments was analyzed with two-way Anova with Bonferroni's post-test, n = 5. […]
Background: Immunoblotting shows a protein as a band on a membrane.

Another experiment concerns neuropathic rats. As to conditions: periaqueductal grey; cited from earlier work. From the text:
(§1) The interaction between NPFF and opioid system in pain and analgesia seems to be complex in nature and the molecular mechanisms behind the observed physiological effects are not known. […] In the rat spinal cord, the highest NPFF-like immunoreactivity is found in the superficial layers of the dorsal h ...

Another experiment concerns opioid receptor subtypes. The conditions noted are these: any opioid receptor subtype; cited from earlier work.
Description: as §1

For experiment [5], the system named is opioid withdrawal syndrome. The conditions noted are these: supraspinal administration; cited from earlier work.
Description: as §1

Another experiment has as its system presynaptic DOR. The conditions noted are these: pontine parabrachial nucleus, via presynaptic DOR; cited from earlier work.
Description: as §1

In a further experiment the test system is NPFF1R. As to conditions: cited from earlier work. From the text: (§2) At the physiological level NPFF seems to have both a direct analgesic effect and a modulatory effect on the opioid system. Some of the effects may be mediated via the NPFF receptors as two such receptors, NPFF1R and NPFF2R, have been identified. […] Also the other RFamide peptides bind to the NPFF receptors with varying affinities, and therefore the exact nature of the receptor-ligand interactions between RFamides and their receptors is still unclear.

For a further experiment, the system named is NPFF2R. The conditions noted are these: cited from earlier work.
Description: as §2

The test system of the next experiment is rat pituitary cells. The conditions noted are these: cited from earlier work. From the text:
The dose-dependence of NPFF-agonist on the BMAX was bell-shaped. This could imply that the NPFF-analogue affects only some conformations of the receptor. […] However, the receptor involved in the prolactin release mechanism was not characterized.

The mark [6] stands for this setting: 100 nM (1DMe)NPYF alone, 5, 10, 30 min, 37°C.

Consider `C=CCN1CC[C@]23c4c5ccc(O)c4O[C@H]2C(=O)CC[C@@]3(O)[C@H]1C5` [naloxone], for which, in the experiment on pain, the “effect on NPFF-induced analgesia / antinociception” value was “reduced” and the “antagonism of analgesic effects of NPFF in vivo” value is “blocked”.
As for `Oc1ccc2c3c1O[C@H]1c4[nH]c5ccccc5c4C[C@@]4(O)[C@@H](C2)N(CC2CC2)CC[C@]314` [naltrindole], in the experiment with pain, the “effect on NPFF-induced analgesia / antinociception” value was “inhibits the NPFF-induced antinociception; also recorded: reduced” and the “antagonism of analgesic effects of NPFF in vivo” value is “blocked”. Besides, the “block of receptor activation by DOR agonists and of enhanced activation by co-applied (1DMe)NPYF” value in [1] (DOR antagonist with DOR agonists ± (1DMe)NPYF) is “could completely block”.
With D-YL-(NMe)-FQPQRF-NH2 [(1DMe)NPYF], the “effect on the BMAX for Tb-DeltI” value in experiment [2] (1 nM and 10 nM (1DMe)NPYF, whole cells) was “significantly decreased the BMAX”. Also, the “effect on the KD for Tb-DeltI” value in experiment [2] (1–1000 nM (1DMe)NPYF, whole cells) is on record as “only modestly affected”. In addition, in experiment [2] (1–1000 nM, whole cells), the “dose-dependence of effect on the BMAX” value is on record as “bell-shaped”. The “effect on the BMAX for Tb-DeltI” value in [2] (higher concentrations of (1DMe)NPYF, whole cells) is reported as “affected the BMAX only modestly”. The “displacement of Tb-DeltI at micromolar concentration” value in experiment [2] (only micromolar concentration, whole cell and membrane assays) is “could displace Tb-DeltI in whole cell and membrane binding assays to some extent”. Also, in [3], the “effect on DPDPE-induced cAMP inhibition” value is “had hardly an effect on the cAMP accumulation”; the “effect on DPDPE-induced inhibition of cAMP accumulation” value is recorded as “enhanced the DOR agonist induced inhibition of cAMP accumulation significantly at all tested DPDPE concentrations”; the “effect on the amount of cAMP” value is reported as “did not have any significant effect on the amount of cAMP”; the “enhancement of inhibitory effect of DOR agonists on cAMP accumulation” value is given as “able to enhance the inhibitory effect of other DOR agonists, e.g. DeltI”. The “activation of ERK2” value in experiment [4] (setting [6]) is listed as “did not result in the activation of ERK2”. Further, in experiment [4] (100 nM (1DMe)NPYF together with 100 nM DPDPE), the “effect on ERK2 activation induced by DPDPE” value is on record as “significantly promoted the activation induced by DPDPE”. Further, the DOR internalization entry in experiment [1] (setting [6]) was “did not induce receptor internalization at any time-point tested”. The cell surface fluorescence entry in experiment [1] (100 nM (1DMe)NPYF alone, 30 min, vs time-matched control cells) is recorded as “somewhat higher fluorescence”.
Regarding “FLFQPQRFamide [NPFF, RFamide peptide originally isolated from bovine brain]”, the “attenuation of tactile allodynia” value in the experiment with neuropathic rats is “selective attenuation of tactile allodynia”. Moreover, in the experiment on opioid receptor subtypes, the “displacement of opioid receptor ligands” value is “does not displace opioid receptor ligands from any of the opioid receptor subtypes”. Besides, in experiment [5], the opioid withdrawal syndrome result is reported as “precipitates opioid withdrawal syndrome”. Also, in the experiment on presynaptic DOR, the “modulation of synaptic transmission” value is on record as “modulates synaptic transmission through interaction with presynaptic DOR”. Also, the “binding to NPFF1R” value in the experiment on NPFF1R was “binds to both of them”. Moreover, the “binding to NPFF2R” value with NPFF2R was “binds to both of them”. In the experiment with pain, the “effect on opiate-induced analgesia” value is “potentiated”. In addition, the “analgesia, intrathecal” value with pain (intrathecal) is listed as “long-lasting analgesia”. Also, in the experiment on pain (supraspinal administration), the “effect on opioid antinociception” value is listed as “attenuates opioid antinociception”. The “effect on prolactin release, dose-response” value with rat pituitary cells was “bell-shaped dose-response curve”.
“Y-D-AFDVVG-NH2 [DeltI, peptidic DOR agonist]”: in the experiment with pain (recruitment of spinal opioid receptors to plasma membrane, inflammation), the “enhanced antinociceptive activity correlated with receptor recruitment” value is “enhanced antinociceptive activity of DeltI is correlated with the recruitment of spinal opioid receptors from intracellular stores to the plasma membrane”.
